Experimental data reported in the Deep4Chem optical property database.

Test: solvent given as SMILES

O=P1(c2ccccc2)C2=C(c3ccccc31)S(=O)(=O)c1ccccc12 (configuration not stated)
absorption maximum (in C1CCCCC1): 380 nm
absorption maximum (in CC#N): 383 nm
absorption maximum (in CCO): 386 nm
absorption maximum (in ClCCl): 386 nm

Cc1c(COC(=O)c2ccccc2)n2c(OCC(=O)c3ccccc3)c(C)c(=O)n2c1=O
absorption maximum (in CCO): 381 nm

COC(=O)CCC1=CC(C#Cc2cccs2)=[N+]2C1=Cc1c(CCC(=O)OC)cc(C#Cc3cccs3)n1[B-]2(F)F
absorption maximum (in ClCCl): 649 nm

CCCCCCCCC1(CCCCCCCC)c2cc(-c3ccc(C(=O)OC)cc3)ccc2-c2ccc(-c3ccc(C(=O)OC)cc3)cc21
absorption maximum (in ClC(Cl)Cl): 341 nm

CCN1c2ccc(/C=N/Nc3ccccn3)cc2Sc2cc(-c3ccc(OC)cc3)ccc21
absorption maximum (in C1CCOC1): 381 nm
absorption maximum (in CS(C)=O): 386 nm
absorption maximum (in Cc1ccccc1): 380 nm
absorption maximum (in ClCCl): 383 nm

COc1ccc(C2=[N+]3C(=Nc4c(-c5cc(OC)c(OC)c(OC)c5)c(Br)c(-c5ccc(OC)cc5)n4[B-]3(F)F)C(c3cc(OC)c(OC)c(OC)c3)=C2Br)cc1
absorption maximum (in Cc1ccccc1): 689 nm

C[C@]12SC(=O)C=C1c1nc(-c3ccccc3O)[nH]c1C1=CC(=O)S[C@@]12C
absorption maximum (in CC#N): 455 nm

CN1/C(=C/C=C(/C=C/C2=[N+](C)c3ccccc3C2(C)C)c2cc(F)cc(F)c2)C(C)(C)c2ccccc21
absorption maximum (in CCO): 636 nm
absorption maximum (in CO): 633 nm
absorption maximum (in CS(C)=O): 644 nm
absorption maximum (in O): 631 nm

c1ccc(-c2cc3cccc4cc(-c5ccccc5)c5cc(-c6cc7[b-]8c(c6)c(-c6ccccc6)cc6cccc(cc7-c7ccccc7)[n+]86)cc2[b-]5[n+]34)cc1
absorption maximum (in C1CCCCC1): 444 nm

c1ccc2c(c1)Oc1ccccc1N2c1ccc2c(c1)c1ccccc1n1ccnc21
absorption maximum (in Cc1ccccc1): 376 nm

CCOC(=O)C1=CN(c2ccccc2)C=C(C(=O)OCC)C1
absorption maximum (in C1CCOC1): 376 nm
absorption maximum (in CO): 380 nm

Nc1ccc2ccc(O)cc2c1
absorption maximum (in O): 332 nm

CCCCCCCCN1c2ccc(C#Cc3ccc(C(F)(F)F)cc3)cc2Sc2cc(C=O)ccc21
absorption maximum (in C1CCOC1): 384.01 nm
absorption maximum (in CC#N): 380 nm
absorption maximum (in CCCCCC): 376.01 nm
absorption maximum (in CO): 362 nm
absorption maximum (in CS(C)=O): 389.99 nm
absorption maximum (in Cc1ccccc1): 381.99 nm
absorption maximum (in ClC(Cl)Cl): 389.99 nm

COc1ccc(-c2ccc(-c3ccc(OC)cc3)c3nc(-c4ccccc4)c(-c4ccccc4)nc23)cc1
absorption maximum (in ClC(Cl)Cl): 366 nm

N#CC1=CC(/C=C/c2ccccc2)=CC(C#N)=P1(c1ccccc1)c1ccccc1
absorption maximum (in ClC(Cl)Cl): 506 nm

CC1(C)C(/C=C/C2=C(Oc3ccc(CCN=C=S)cc3Br)C(=C/C=C3/N(CCCS(=O)(=O)[O-])c4ccccc4C3(C)C)/CCC2)=[N+](CCCS(=O)(=O)[O-])c2ccccc21
absorption maximum (in CO): 768 nm

ClP1(Cl)=N[P@](Cl)(Oc2ccc3ccc4cccc5ccc2c3c45)=N[P@@](Cl)(Oc2ccc3ccc4cccc5ccc2c3c45)=N1
absorption maximum (in ClCCl): 343 nm

CN(C)c1ccc2c(-c3cc(N)ccc3C(=O)[O-])c3ccc(=[N+](C)C)cc-3oc2c1
absorption maximum (in CCO): 542 nm
absorption maximum (in O): 544 nm

CCCCCCC1(CCCCCC)c2cc(-c3nc(-c4ccc5c(c4)C(CCCCCC)(CCCCCC)c4cc(-n6c7ccc(C(C)(C)C)cc7c7cc(C(C)(C)C)ccc76)ccc4-5)nc(-c4ccc5c(c4)C(CCCCCC)(CCCCCC)c4cc(-n6c7ccc(C(C)(C)C)cc7c7cc(C(C)(C)C)ccc76)ccc4-5)n3)ccc2-c2ccc(-n3c4ccc(C(C)(C)C)cc4c4cc(C(C)(C)C)ccc43)cc21
absorption maximum (in C1CCOC1): 382 nm

CCN(CC)c1cc(NC(C)=O)c(/N=N/c2cc3c(=O)[nH][nH]c(=O)c3cc2[N+](=O)[O-])cc1OC
absorption maximum (in CC(=O)O): 556 nm
absorption maximum (in CN(C)C=O): 550 nm
absorption maximum (in CS(C)=O): 553 nm

CN(C)c1cc(F)c(C(=O)c2cc(F)c(N(C)C)cc2F)cc1F
absorption maximum (in CCO): 358 nm

COC(=O)C1=C(C(=O)OC)C2(c3ccccc3-c3c(C(=O)OC)cccc32)[C@@H](c2ccc(Cl)cc2)C=C2c3cc(OC)c(OC)cc3CCN21 (some centres not stated)
absorption maximum (in ClCCl): 311 nm

CC(C)(C)c1ccc(-c2cc(-c3ccc(-c4cc(-c5ccc(C(C)(C)C)cc5)c(C(=O)N5CCOCC5)s4)s3)sc2C(=O)N2CCOCC2)cc1
absorption maximum (in ClCCl): 377 nm

CCCCCOc1cc2oc(=O)c3c4ccc(N(c5ccc(C)cc5)c5ccc(C)cc5)cc4c4ccc5cccc6c(c1)c2c3c4c56
absorption maximum (in C1CCOC1): 487 nm

CC1=C2C=CC(C)=[N+]2[B-](F)(F)n2cccc21
absorption maximum (in CCCCCC): 499 nm
absorption maximum (in CO): 494 nm
absorption maximum (in ClCCl): 498 nm

CC(C)(C)c1ccc(-c2ccc(-c3c4c(nc5ccccc35)-c3cc5c(cc3CC4)-c3nc4ccccc4c(-c4ccc(-c6ccc(C(C)(C)C)cc6)cc4)c3CC5)cc2)cc1
absorption maximum (in ClC(Cl)Cl): 376 nm

c12c3c4c5c1c1c6c7c2c2c8c3c3c9c4c4c%10c5c5c1c1c6c6c%11c%12c%13c%14c%15c%16c%17c%14c%14c%18c%13c%11c1c1c5c%10c5c(c%14c%10c%17c%11c%13c%16c%14c%16c%15c%12c%12c%16c(c2c7c%126)c2c8c3c(c%13c%142)c2c9c4c5c%10c%112)c%181
absorption maximum (in CC1CCCCC1): 470 nm

CCN(CC)c1ccc2cc3c([o+]c2c1)/C(=C/Nc1ccccc1)CCC3
absorption maximum (in CCO): 605 nm
absorption maximum (in ClC(Cl)Cl): 616 nm
absorption maximum (in ClCCl): 615 nm

Cc1cc(C)c(B(c2ccc(-n3c4ccccc4c4ccccc43)cc2)c2c(C)cc(C)cc2C)c(C)c1
absorption maximum (in Cc1ccccc1): 360 nm

CC(C)c1cccc(C(C)C)c1-n1c(=O)c2cc3nc(-c4ccccc4)c4cc5c(=O)n(-c6c(C(C)C)cccc6C(C)C)c(=O)c6cc7c(-c8ccccc8)nc8cc(c1=O)c2c1c3c4c(c56)c7c81
absorption maximum (in ClC(Cl)Cl): 480 nm

c1ccc2cc3c(cc2c1)oc1c2oc4cc5ccccc5cc4c2c2ccccc2c31
absorption maximum (in C1CCOC1): 395 nm

c1ccc(-c2c3ccccc3c(-c3ccccc3)c3cc4ccccc4cc23)cc1
absorption maximum (in ClCCl): 493 nm

CCN(CC)c1ccc2c(c1)oc(=O)c1cc3c(C)nn(-c4ccccc4)c3nc12
absorption maximum (in ClCCl): 377 nm

O=C(O)c1ccc(-c2cnc(-c3ccc(N(c4ccccc4)c4ccccc4)cc3)s2)cc1
absorption maximum (in CO): 387 nm

CCc1s[c+](N2CCCCC2)sc1-c1cc(C)cc(I)c1[O-]
absorption maximum (in C1CCOC1): 409 nm
absorption maximum (in CC#N): 405 nm
absorption maximum (in CO): 360 nm
absorption maximum (in ClCCl): 406 nm

CCCCCCCc1ccc(C2=[N+]3C(=C4c5cc(OCC(CC)CC)c(-c6ccc(CCCCCCC)o6)n5[B-](F)(F)[n+]5c4n(c4cc(C(C)(C)C)ccc45)[B-]3(F)F)C=C2OCC(CC)CC)o1
absorption maximum (in C1CCOC1): 816 nm
absorption maximum (in ClCCl): 826 nm

CNC(=O)[C@H](C)NC(=O)c1cccc2c1C#Cc1c(N)cccc1OCCCO2
absorption maximum (in CC#N): 347 nm
absorption maximum (in ClCCl): 345 nm

COc1ccc2c(c1)CCC1=C(c3ccccc3)C3=C(c4ccc5cccc(O)c5n4)c4c(-c5ccccc5)c5c(n4[B-](F)(F)[N+]3=C12)-c1ccc(OC)cc1CC5
absorption maximum (in O): 660 nm

CC(C)(C)c1ccc2c(c1)c1cc(C(C)(C)C)ccc1n2-c1ccc(N(c2ccc(-c3ccc(-c4ccc(-c5ccc(N(c6ccc(-n7c8ccc(C(C)(C)C)cc8c8cc(C(C)(C)C)ccc87)cc6)c6ccc(-n7c8ccc(C(C)(C)C)cc8c8cc(C(C)(C)C)ccc87)cc6)cc5)s4)s3)cc2)c2ccc(-n3c4ccc(C(C)(C)C)cc4c4cc(C(C)(C)C)ccc43)cc2)cc1
absorption maximum (in ClCCl): 418 nm
